Measured values as given in patent US12583858B2 (Genentech, Inc., priority 2015, dated 2026).

Target: T1, TDO2 (Homo sapiens, UniProt P48775)
T1 construct: decreased levels of NFK in SW48 cells (high TDO expressing cells)
Assay: TDO2 cell assay (NFK GreenScreen, SW48 cells)
Type: cell-based
Conditions: SW48 cells (high TDO expressing), 200 uM tryptophan, 24 hours; Table 3; read-out: TDO2 Cell Fluor EC50

T1 sequence (P48775 whole entry): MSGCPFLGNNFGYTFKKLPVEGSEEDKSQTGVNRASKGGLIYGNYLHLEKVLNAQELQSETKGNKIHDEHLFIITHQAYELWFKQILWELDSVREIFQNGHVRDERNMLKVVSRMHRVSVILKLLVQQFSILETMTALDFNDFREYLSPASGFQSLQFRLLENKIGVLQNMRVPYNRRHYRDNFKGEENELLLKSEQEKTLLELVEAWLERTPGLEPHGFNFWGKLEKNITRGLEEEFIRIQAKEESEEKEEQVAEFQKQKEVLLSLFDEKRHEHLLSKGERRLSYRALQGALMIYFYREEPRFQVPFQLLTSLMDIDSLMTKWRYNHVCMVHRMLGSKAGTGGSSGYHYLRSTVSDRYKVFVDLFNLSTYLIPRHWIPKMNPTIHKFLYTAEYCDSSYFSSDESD

| EC50 [µM] | SMILES |
| --- | --- |
| > 25 | OC1c2ccnn2CCCC1C1c2ccccc2-c2cncn21 (single isomer, unassigned) [Example 133h] |
| > 25 | CC(C)C(O)C1c2ccc(F)cc2-c2cncn21 (single isomer, unassigned) [Example 135a] |
| 3 | CC(C)C(O)C1c2ccc(F)cc2-c2cncn21 (single isomer, unassigned) [Example 135c] |
| 0.13 | CC(C)C(O)C1c2ccc(F)cc2-c2cncn21 (single isomer, unassigned) [Example 135d] |
| 6.7 | OC1c2cccn2CCC1C1c2ccccc2-c2cncn21 (single isomer, unassigned) [Example 136c] |
| 15 | OC1c2cccn2CCC1C1c2ccccc2-c2cncn21 (single isomer, unassigned) [Example 136d] |
| 0.64 | OC1c2cccn2CCC1C1c2ccccc2-c2cncn21 (single isomer, unassigned) [Example 136e] |
| 0.2 | OC1c2cccn2CCC1C1c2ccccc2-c2cncn21 (single isomer, unassigned) [Example 136g] |
| > 25 | CCC(O)C1c2ccccc2-c2cncn21 (single isomer, unassigned) [Example 137a] |
| 0.2 | CCC(O)C1c2ccccc2-c2cncn21 (single isomer, unassigned) [Example 137c] |
| > 25 | O[C@@H](C1CCOCC1)[C@H]1c2ccccc2-c2cncn21 (single isomer, unassigned) [Example 138b] |
| > 25 | O[C@@H](C1CCOCC1)[C@@H]1c2ccccc2-c2cncn21 (single isomer, unassigned) [Example 138c] |
| 10 | O[C@@H](C1CCOCC1)[C@@H]1c2ccccc2-c2cncn21 (single isomer, unassigned) [Example 138d] |
| 5.3 | Cn1cc2c(n1)C(O)C(C1c3ccccc3-c3cncn31)CC2 (single isomer, unassigned) [Example 139-1a] |
| > 25 | Cn1cc2c(n1)C(O)C(C1c3ccccc3-c3cncn31)CC2 (single isomer, unassigned) [Example 139-1b] |
| > 25 | Cn1cc2c(n1)[C@@H](O)[C@@H]([C@@H]1c3ccccc3-c3cncn31)CC2 (single isomer, unassigned) [Example 139-1c] |
| 0.7 | Cn1cc2c(n1)[C@@H](O)[C@@H]([C@@H]1c3ccccc3-c3cncn31)CC2 (single isomer, unassigned) [Example 139-1d] |
| > 25 | Cn1cc2c(n1)C(O)C(C1c3ccccc3-c3cncn31)CC2 (single isomer, unassigned) [Example 139-1e] |
| 0.21 | Cn1cc2c(n1)C(O)C(C1c3ccccc3-c3cncn31)CC2 (single isomer, unassigned) [Example 139-1f] |
| > 25 | OC1c2cnnn2CCC1C1c2ccccc2-c2cncn21 (single isomer, unassigned) [Example 139a] |
| 1 | OC1c2cnnn2CCC1C1c2ccccc2-c2cncn21 (single isomer, unassigned) [Example 139b] |
| > 25 | NC(=O)C1CCC(O)(C2c3ccccc3-c3cncn32)CC1 (single isomer, unassigned) [Example 140a] |
| > 25 | NC(=O)C1CCC(O)(C2c3ccccc3-c3cncn32)CC1 (single isomer, unassigned) [Example 140b] |
| > 25 | NC(=O)C1CCC(O)(C2c3ccccc3-c3cncn32)CC1 (single isomer, unassigned) [Example 140c] |
| 3.5 | NC(=O)C1CCC(O)(C2c3ccccc3-c3cncn32)CC1 (single isomer, unassigned) [Example 140d] |
| 17 | OC1(C2c3ccccc3-c3cncn32)CCCc2ccncc21 (single isomer, unassigned) [Example 141a] |
| 3.8 | OC1(C2c3ccccc3-c3cncn32)CCCc2ccncc21 (single isomer, unassigned) [Example 141b] |
| > 25 | OC1(C2c3ccccc3-c3cncn32)CCCc2ccncc21 (single isomer, unassigned) [Example 141c] |
